“And” between values parts separate entries of the source, which are not always exact repeats. Identical values can stand only once.
Tests used:
Type in all cases: in vivo
Setaria viridis = assay: greenhouse post-emergence treatment, SETVI
How it was run: (§1)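 Scoring used a 0 to 100 scale, with 100 denoting no emergence or full destruction of at least the above-ground parts, recorded within a 2 to 4 week test period. Test plants grew in loamy sand containing about 3.0% humus at 10-25° C. or 20-35° C., after direct sowing or transplanting, and received water-based treatments post-emergence.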

Ambrosia elatior = assay: greenhouse pre-emergence treatment, AMBEL
How it was run: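 Damage rated on 0 to 100 scale (0 = normal growth, 100 = no emergence or total above-ground kill) after 2-4 weeks at species-dependent 10-25° C or 20-35° C. Seeds sown per species in loamy sand, ~3.0% humus, treated right after sowing with aqueous spray of single actives or 10% emulsion-concentrate mixtures, then hooded; additive expectation by Colby.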

Papaver rhoeas = assay: greenhouse post-emergence treatment, PAPRH
How it was run: (§2)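 Foliar application to greenhouse-grown plants 3–15 cm tall in humus-containing loamy sand; response assessed on a 0–100 scale after 2–4 weeks, with Colby's E=X+Y−(X·Y/100) as the additive expectation.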

Matricaria chamomilla = assay: greenhouse post-emergence treatment, MATCH
How it was run: as §2

Polygonum convolvulus = assay: greenhouse post-emergence treatment, POLCO
How it was run: as §2

Avena fatua = assay: greenhouse post-emergence treatment, AVEFA
How it was run: as §1

[1] = 20 DAT, Ex. 26 solo 62.5 gai/ha

## COC(=O)c1nc(C2CC2)ncc1-c1ccc(F)cc1Cl [Ex. 26]
Setaria viridis; [1]
  % activity: 0%
Setaria viridis; 21 DAT, Ex. 26 solo 125 gai/ha
  % activity: 0%
Setaria viridis; 21 DAT, Ex. 26 solo 250 gai/ha
  % activity: 0%
Setaria viridis; Ex. 26 solo 62.5 gai/ha, 20 DAT, SETVI (pyridate table)
  % activity: 0%
Setaria viridis; Ex. 26 solo 62.5 gai/ha, 20 DAT, SETVI (pyroxsulam table)
  % activity: 0%
Setaria viridis; Ex. 26 solo 125 gai/ha, 20 DAT, SETVI (pyridate table)
  % activity: 20%
Setaria viridis; Ex. 26 solo 125 gai/ha, 20 DAT, SETVI (pyroxsulam table)
  % activity: 0%
Setaria viridis; Ex. 26 solo 250 gai/ha, 20 DAT, SETVI (pyridate table)
  % activity: 25%
Setaria viridis; Ex. 26 solo 250 gai/ha, 20 DAT, SETVI (pyroxsulam table)
  % activity: 10%
Setaria viridis; Ex. 26 solo, 125 gai/ha, 21 DAT, SETVI
  % activity: 10%
Setaria viridis; Ex. 26 solo, 250 gai/ha, 21 DAT, SETVI
  % activity: 15%
Setaria viridis; SETVI, 21 DAT, solo Ex. 26 62.5 gai/ha
  % activity: 10%
Setaria viridis; SETVI, 21 DAT, solo Ex. 26 125 gai/ha
  % activity: 10%
Ambrosia elatior; 20 DAT, AMBEL, Ex. 26 solo 31.25 gai/ha
  % activity: 0%
Ambrosia elatior; 20 DAT, AMBEL, Ex. 26 solo 62.5 gai/ha
  % activity: 0%
Ambrosia elatior; 20 DAT, AMBEL, Ex. 26 solo 125 gai/ha
  % activity: 0%
Ambrosia elatior; 20 DAT, AMBEL, Ex. 26 solo 250 gai/ha
  % activity: 0%
Ambrosia elatior; 20 DAT, Ex. 26 solo 31.25 gai/ha
  % activity: 0%
Ambrosia elatior; [1]
  % activity: 0%
Ambrosia elatior; 20 DAT, Ex. 26 solo 125 gai/ha
  % activity: 0%
Ambrosia elatior; 21 DAT, AMBEL, Ex. 26 solo 250 gai/ha
  % activity: 0%
Ambrosia elatior; AMBEL, 20 DAT, solo Ex. 26 62.5 gai/ha
  % activity: 0%
Ambrosia elatior; AMBEL, 20 DAT, solo Ex. 26 125 gai/ha
  % activity: 0%
Ambrosia elatior; AMBEL, Ex. 26 solo 31.25 gai/ha, 20 DAT
  % activity: 0%
Ambrosia elatior; AMBEL, Ex. 26 solo 62.5 gai/ha, 20 DAT
  % activity: 0%
Ambrosia elatior; AMBEL, Ex. 26 solo 125 gai/ha, 20 DAT
  % activity: 0%
Ambrosia elatior; Ex. 26 solo 250 gai/ha, 21 DAT, AMBEL
  % activity: 0%
Ambrosia elatior; Ex. 26 solo, 31.25 gai/ha, 20 DAT, AMBEL
  % activity: 0%
Ambrosia elatior; Ex. 26 solo, 62.5 gai/ha, 20 DAT, AMBEL
  % activity: 0%
Ambrosia elatior; Ex. 26 solo, 125 gai/ha, 20 DAT, AMBEL
  % activity: 0%
Papaver rhoeas; [1]
  % activity: 0%
Papaver rhoeas; 20 DAT, Ex. 26 solo 125 gai/ha
  % activity: 0%
Papaver rhoeas; 20 DAT, Ex. 26 solo 250 gai/ha
  % activity: 0%
Papaver rhoeas; 20 DAT, PAPRH, Ex. 26 solo 125 gai/ha
  % activity: 0%
Papaver rhoeas; 20 DAT, PAPRH, Ex. 26 solo 250 gai/ha
  % activity: 20%
Papaver rhoeas; 21 DAT, Ex. 26 solo 125 gai/ha
  % activity: 0%
Papaver rhoeas; 21 DAT, Ex. 26 solo 250 gai/ha
  % activity: 0%
Papaver rhoeas; Ex. 26 solo 62.5 gai/ha, 20 DAT, PAPRH (pyridate table)
  % activity: 0%
Papaver rhoeas; Ex. 26 solo 62.5 gai/ha, 20 DAT, PAPRH (pyroxsulam table)
  % activity: 0%
Papaver rhoeas; Ex. 26 solo 62.5 gai/ha, 21 DAT, PAPRH
  % activity: 0%
Papaver rhoeas; Ex. 26 solo 125 gai/ha, 20 DAT, PAPRH (pyridate table)
  % activity: 0%
Papaver rhoeas; Ex. 26 solo 125 gai/ha, 20 DAT, PAPRH (pyroxsulam table)
  % activity: 0%
Papaver rhoeas; Ex. 26 solo 250 gai/ha, 20 DAT, PAPRH (pyridate table)
  % activity: 45%
Papaver rhoeas; Ex. 26 solo 250 gai/ha, 20 DAT, PAPRH (pyroxsulam table)
  % activity: 0%
Papaver rhoeas; Ex. 26 solo 250 gai/ha, 21 DAT, PAPRH
  % activity: 0%
Papaver rhoeas; Ex. 26 solo, 125 gai/ha, 21 DAT, PAPRH
  % activity: 0%
Papaver rhoeas; Ex. 26 solo, 250 gai/ha, 21 DAT, PAPRH
  % activity: 15%
Papaver rhoeas; PAPRH, Ex. 26 solo 62.5 gai/ha, 20 DAT
  % activity: 0%
Papaver rhoeas; PAPRH, Ex. 26 solo 125 gai/ha, 20 DAT
  % activity: 0%
Matricaria chamomilla; [1]
  % activity: 0%
Matricaria chamomilla; 20 DAT, Ex. 26 solo 125 gai/ha
  % activity: 0%
Matricaria chamomilla; 20 DAT, Ex. 26 solo 250 gai/ha
  % activity: 0%
Matricaria chamomilla; 20 DAT, MATCH, Ex. 26 solo 62.5 gai/ha
  % activity: 0%
Matricaria chamomilla; 20 DAT, MATCH, Ex. 26 solo 125 gai/ha
  % activity: 0%
Matricaria chamomilla; 20 DAT, MATCH, Ex. 26 solo 250 gai/ha
  % activity: 0%
Matricaria chamomilla; 21 DAT, Ex. 26 solo 250 gai/ha
  % activity: 0%
Matricaria chamomilla; Ex. 26 solo 62.5 gai/ha, 20 DAT, MATCH (pyridate table)
  % activity: 0%
Matricaria chamomilla; Ex. 26 solo 62.5 gai/ha, 20 DAT, MATCH (pyroxsulam table)
  % activity: 0%
Matricaria chamomilla; Ex. 26 solo 125 gai/ha, 20 DAT, MATCH (pyridate table)
  % activity: 0%
Matricaria chamomilla; Ex. 26 solo 125 gai/ha, 20 DAT, MATCH (pyroxsulam table)
  % activity: 0%
Matricaria chamomilla; Ex. 26 solo 250 gai/ha, 20 DAT, MATCH (pyridate table)
  % activity: 0%
Matricaria chamomilla; Ex. 26 solo 250 gai/ha, 20 DAT, MATCH (pyroxsulam table)
  % activity: 30%
Matricaria chamomilla; Ex. 26 solo 250 gai/ha, 21 DAT, MATCH
  % activity: 0%
Matricaria chamomilla; Ex. 26 solo, 125 gai/ha, 20 DAT, MATCH
  % activity: 0%
Matricaria chamomilla; Ex. 26 solo, 250 gai/ha, 20 DAT, MATCH
  % activity: 0%
Matricaria chamomilla; Ex. 26 solo, 250 gai/ha, 21 DAT, MATCH
  % activity: 20%
Matricaria chamomilla; MATCH, 21 DAT, solo Ex. 26 62.5 gai/ha
  % activity: 0%
Matricaria chamomilla; MATCH, Ex. 26 solo 62.5 gai/ha, 20 DAT
  % activity: 0%
Polygonum convolvulus; 20 DAT, Ex. 26 solo 250 gai/ha
  % activity: 30%
Polygonum convolvulus; 20 DAT, POLCO, Ex. 26 solo 62.5 gai/ha
  % activity: 65%
Polygonum convolvulus; 20 DAT, POLCO, Ex. 26 solo 125 gai/ha
  % activity: 85% and 80%
Polygonum convolvulus; 21 DAT, Ex. 26 solo 125 gai/ha
  % activity: 0%
Polygonum convolvulus; Ex. 26 solo 62.5 gai/ha, 20 DAT, POLCO
  % activity: 30%
Polygonum convolvulus; Ex. 26 solo 62.5 gai/ha, 21 DAT, POLCO
  % activity: 0%
Polygonum convolvulus; Ex. 26 solo 125 gai/ha, 20 DAT, POLCO
  % activity: 90%
Polygonum convolvulus; Ex. 26 solo 125 gai/ha, 21 DAT, POLCO
  % activity: 0%
Polygonum convolvulus; Ex. 26 solo, 125 gai/ha, 20 DAT, POLCO
  % activity: 5%
Polygonum convolvulus; Ex. 26 solo, 125 gai/ha, 21 DAT, POLCO
  % activity: 35%
Polygonum convolvulus; Ex. 26 solo, 250 gai/ha, 20 DAT, POLCO
  % activity: 30%
Polygonum convolvulus; Ex. 26 solo, 250 gai/ha, 21 DAT, POLCO
  % activity: 85%
Polygonum convolvulus; POLCO, 21 DAT, solo Ex. 26 62.5 gai/ha
  % activity: 0%
Polygonum convolvulus; POLCO, 21 DAT, solo Ex. 26 125 gai/ha
  % activity: 35%
Polygonum convolvulus; POLCO, 21 DAT, solo Ex. 26 250 gai/ha
  % activity: 85%
Avena fatua; 20 DAT, AVEFA, Ex. 26 solo 62.5 gai/ha
  % activity: 65%
Avena fatua; 20 DAT, AVEFA, Ex. 26 solo 125 gai/ha
  % activity: 75%
Avena fatua; 20 DAT, AVEFA, Ex. 26 solo 250 gai/ha
  % activity: 75%
Avena fatua; [1]
  % activity: 35%
Avena fatua; 20 DAT, Ex. 26 solo 250 gai/ha
  % activity: 70%
Avena fatua; AVEFA, 21 DAT, solo Ex. 26 62.5 gai/ha
  % activity: 70%
Avena fatua; AVEFA, 21 DAT, solo Ex. 26 125 gai/ha
  % activity: 70%
Avena fatua; AVEFA, Ex. 26 solo 125 gai/ha, 20 DAT
  % activity: 70%
Avena fatua; AVEFA, Ex. 26 solo 250 gai/ha, 20 DAT
  % activity: 75%
Avena fatua; Ex. 26 solo 62.5 gai/ha, 20 DAT, AVEFA
  % activity: 65%
Avena fatua; Ex. 26 solo 62.5 gai/ha, 21 DAT, AVEFA
  % activity: 50%
Avena fatua; Ex. 26 solo 125 gai/ha, 20 DAT, AVEFA
  % activity: 70%
Avena fatua; Ex. 26 solo 250 gai/ha, 20 DAT, AVEFA
  % activity: 75%
Avena fatua; Ex. 26 solo, 125 gai/ha, 20 DAT, AVEFA
  % activity: 65%
Avena fatua; Ex. 26 solo, 125 gai/ha, 21 DAT, AVEFA
  % activity: 70%
